Data reported in patent US20250340616A1, “NOVEL PEPTIDE MIMICS AND THEIR USE” (STIFTELSEN VECTIS, priority 2021, published 2025).
Where no end group is shown, it is not given here. [ ]: non-standard residue; d: D form. Cit = NC(=O)NCCC[C@H](N)C(=O)O

Test system: TCR specific for the citrullinated fibrinogen peptide
Assay: activation of 58−/− T cell line expressing cit-fib specific TCR by peptide-loaded HLA-DRB1*04:01 monomers (NFAT-GFP reporter, PD1 expression)
Format: cell-based, human
Conditions: peptide presented on HLA-DRB1*04:01, 48 h; for TCR-dependent NFAT mediated activation of T cells: GFP reporter, FIG. 3; for TCR-dependent PD1 expression: anti-mouse PD-1 staining, FIG. 4
Protocol: 58−/− cell line expressing cit-fib specific TCRs in ametrine expressing vector, along with co-expression of human CD4 and GFP as a reporter for NFAT expression.
HLA-DRB1*04:01 monomeric protein (500 μg/mL) was incubated for 72 h at 37° C. with different versions of fib69-81 peptide (test) and VimX71 peptide (control) in sodium phosphate buffer (1×) containing n-octyl β-D-Glucopyranoside (Sigma-Aldrich, USA) and Pefabloc SC (Sigma-Aldrich, USA), and then stored at 4° C. until used. Loaded HLA monomers were subsequently coated (0.03-2 μg/well) onto 48-well plates in 100 μl PBS for 4 h at 37° C. The HLA/peptide solution was subsequently flicked of the plate and specific T cells (5×104) and anti-CD28 (1 μg/well) were added to the monomer-coated wells and incubated for 48 h at 37° C. before collecting cells.
As positive controls, anti-mouse anti-CD3 (BioLegend #100314), anti-CD28 (BioLegend #101112) were used.
PD1 expression on 58−/− cells was assessed using anti-mouse PD-1 PE-Cy7 antibody, while NFAT activation was studied using assessment of GFP expression following cell stimulation. Human CD4+ametrine+ viable singlets were used as population to look for expression of NFAT and PD1.

Sequence | TCR-dependent NFAT mediated activation of T cells | TCR-dependent PD1 expression
GGFRAQPAKAAAT [FibF71Q74, fibrinogen 69-81 mimic, glutamine in position 74 and phenylalanine in position 71] | equally capable of triggering T cell activation as the original citrullinated peptide | equally capable of triggering T cell activation as the original citrullinated peptide
GGFRAXPAKAAAT (GGFRA[Cit]PAKAAAT; ends and bridges not checked) [FibF71X74] | equally capable of triggering T cell activation as the original citrullinated peptide | equally capable of triggering T cell activation as the original citrullinated peptide
GGYRAQPAKAAAT [FibQ74, fibrinogen 69-81 mimic, a glutamine in position 74] | equally capable of triggering T cell activation as the original citrullinated peptide | equally capable of triggering T cell activation as the original citrullinated peptide
